System: platelets
Assay: Assaying platelet aspirin response: luciferin/luciferase light emission (extracellular ATP) in arachidonic-acid-treated diluted whole blood drawn before and after taking aspirin
Assay type: cell-based, human
Conditions: individuals of FIGS. 2A and 2C; blood drawn after aspirin 325 mg; no-aspirin sample very steep
Protocol: Volunteers who had not taken aspirin in the previous 24 hours underwent a finger prick to draw blood. Blood (2 μl) was diluted into 1 ml of buffer (PBS, 0.9% NaCl, 10 mM sodium phosphate, pH 7.0) in a clear test tube. An aliquot (15 μl) of luciferin/luciferase solution (containing 10 mg/ml luciferin and 10 μg/ml luciferase) was added to the diluted blood. The solution was mixed and placed in a Zylux FEMPTOMASTER FB12 photon counter. A baseline reading of the light emission was taken. The test tube was then withdrawn, and 5 μl of 15 mM arachidonic acid was added to the solution and the solution was mixed. The test tube was then reinserted in the photon counter and light emission readings were taken for approximately 2 to 4 minutes.
The volunteer then swallowed or chewed an aspirin (325 mg). A blood sample was taken, and the process was repeated. The results from blood drawn from an individual before and after taking aspirin were compared.

With `CC(=O)Oc1ccccc1C(=O)O` [aspirin] as the molecule, how does the “slope of light emission vs. time after arachidonic acid is added, aspirin sample” value read?
The value was “almost flat”.
